Assay results published in ChEMBL document CHEMBL1781974, “Novel 4,4-disubstituted piperidine-based C-C chemokine receptor-5 inhibitors with high potency against human immunodeficiency virus-1 and an improved human ether-a-go-go related gene (hERG) profile” (J Med Chem, 2011).

Legend:
Cynomolgus monkey = conditions: in vivo, po, 10 mg/kg
[1] = Dissociation constant, pKa of the compound; type: physicochemical
in vivo = conditions: rat, iv
[2] = AUC in male dog at 250 mg/kg/day, iv; type: ADME, organism-based, Canis lupus familiaris; set-up: route intravenous; conditions: plasma
[3] = AUC in female dog at 250 mg/kg/day, iv; type: ADME, organism-based, Canis lupus familiaris; set-up: route intravenous; conditions: plasma
[4] = AUC in male rat at 2000 mg/kg/day, iv; type: ADME, organism-based; set-up: route intravenous; conditions: plasma
[5] = AUC in female rat at 2000 mg/kg/day, iv; type: ADME, organism-based; set-up: route intravenous; conditions: plasma

SMILES | clearance (in vivo) | further results
Cc1nc2ccccc2n1C1CC2CCC(C1)N2CCC1(c2cccc(F)c2)CCN(C(=O)c2cc(NS(C)(=O)=O)c(F)cc2Cl)CC1 (centres undefined) | – | AUC/dose (Cynomolgus monkey): 59 ng·h/mL
Cc1nc2ccccc2n1[C@H]1C[C@H]2CC[C@@H](C1)N2CCC1(c2ccccc2)CCN(C(=O)C(C)(C)C)CC1 | – | pKa [1]: 10.7
Cc1nc2ccccc2n1C1CC2CCC(C1)N2CC(=O)C1(c2ccccc2)CCN(C(=O)C(C)(C)C)CC1 (centres undefined) | – | pKa [1]: 6.37
Cc1nc2ccccc2n1C1CC2CCC(C1)N2CCC1(c2cccc(F)c2)CCN(C(=O)C(C)(C)C)CC1 (centres undefined) | 24 mL/min/kg | –
Cc1nc2ccccc2n1C1CC2CCC(C1)N2CCC1(c2cccc(F)c2)CCN(C(=O)C2(C(=O)O)CCC2)CC1 (centres undefined) | 136 mL/min/kg | –
Cc1nc2ccccc2n1C1CC2CCC(C1)N2CCC1(c2ccccc2)CCN(C(=O)c2ccccc2C(=O)O)CC1 (centres undefined) | 114 mL/min/kg | –
Cc1nc2ccccc2n1C1CC2CCC(C1)N2CCC1(c2ccccc2)CCN(C(=O)c2cccc(C(=O)O)c2)CC1 (centres undefined) | 62 mL/min/kg | –
Cc1nc2ccccc2n1C1CC2CCC(C1)N2CCC1(c2ccccc2)CCN(C(=O)C(C)(C)c2nnn[nH]2)CC1 (centres undefined) | 156 mL/min/kg | –
Cc1nc2ccccc2n1C1CC2CCC(C1)N2CCC1(c2ccccc2)CCN(C(=O)C(C)(C)C(=O)NS(C)(=O)=O)CC1 (centres undefined) | 53 mL/min/kg | –
Cc1nc2ccccc2n1C1CC2CCC(C1)N2CCC1(c2ccccc2)CCN(C(=O)c2ccc3c(c2)CC(=O)NS3(=O)=O)CC1 (centres undefined) | 26 mL/min/kg | –
Cc1nc2ccccc2n1C1CC2CCC(C1)N2CCC1(c2ccccc2)CCN(C(=O)c2ccc(Cl)c(S(N)(=O)=O)c2)CC1 (centres undefined) | 31 mL/min/kg | –
Cc1nc2ccccc2n1C1CC2CCC(C1)N2CCC1(c2cccc(F)c2)CCN(C(=O)c2ccc(Cl)c(S(N)(=O)=O)c2)CC1 (centres undefined) | 26.8 mL/min/kg | –
Cc1cccc(C2(CCN3C4CCC3CC(n3c(C)nc5ccccc53)C4)CCN(C(=O)c3ccc(Cl)c(S(N)(=O)=O)c3)CC2)c1 (centres undefined) | 28.3 mL/min/kg | –
CNS(=O)(=O)c1cc(C(=O)N2CCC(CCN3C4CCC3CC(n3c(C)nc5ccccc53)C4)(c3cccc(F)c3)CC2)c(Cl)cc1F (centres undefined) | – | AUC/dose (Cynomolgus monkey): 38 ng·h/mL; AUC [2]: 17200 ng·h/mL; AUC [3]: 34900 ng·h/mL; AUC [4]: 77000 ng·h/mL; AUC [5]: 160000 ng·h/mL
Cc1nc2ccccc2n1C1CC2CCC(C1)N2CCC1(c2cccc(F)c2)CCN(C(=O)c2c(F)ccc(NS(C)(=O)=O)c2F)CC1 (centres undefined) | – | AUC/dose (Cynomolgus monkey): 19.9 ng·h/mL
